Source: ChEMBL document CHEMBL1201862, “PubChem BioAssay data set” (2004)
Activity calls are given as the source filed them.

Tests used:
[1] = target: T1, Intestinal-type alkaline phosphatase (Homo sapiens, UniProt P09923); assay: human IAP activators, dose response, biochemical, luminescent, uHTS hits, set 2 (AID 488817); format: functional;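 note: potency of activators that raise enzyme activity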
[2] = target: T2, Alkaline phosphatase, tissue-nonspecific isozyme (Homo sapiens, UniProt P05186); assay: TNAP enzyme activators, dose response, selectivity assay for human IAP activator project, biochemical, TNAP isozyme, human IAP uHTS hits (AID 488886); format: functional;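 note: potency of compounds raising TNAP activity as a selectivity check on IAP activators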
T2 sequence (P05186 whole entry): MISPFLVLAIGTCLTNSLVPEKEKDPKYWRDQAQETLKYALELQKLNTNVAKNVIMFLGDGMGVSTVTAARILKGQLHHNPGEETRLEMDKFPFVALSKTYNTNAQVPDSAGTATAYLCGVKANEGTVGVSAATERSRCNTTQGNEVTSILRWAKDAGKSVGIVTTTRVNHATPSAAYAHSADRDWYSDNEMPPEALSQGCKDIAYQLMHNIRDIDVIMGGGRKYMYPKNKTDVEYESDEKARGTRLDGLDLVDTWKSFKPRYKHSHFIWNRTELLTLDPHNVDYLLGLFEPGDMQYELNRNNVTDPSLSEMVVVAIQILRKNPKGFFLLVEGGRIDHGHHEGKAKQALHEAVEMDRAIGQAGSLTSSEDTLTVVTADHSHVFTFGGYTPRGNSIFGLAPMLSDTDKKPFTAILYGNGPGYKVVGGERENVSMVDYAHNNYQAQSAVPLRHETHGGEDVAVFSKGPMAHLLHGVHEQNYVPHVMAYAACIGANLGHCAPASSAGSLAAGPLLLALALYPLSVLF

[3] = target: T1, Intestinal-type alkaline phosphatase; assay: human intestinal alkaline phosphatase activators, dose response, biochemical, luminescence, uHTS hits (AID 463120); format: functional
[4] = target: Intestinal-type alkaline phosphatase (Mus musculus, UniProt P24822); assay: PubChem AID 488875; format: functional
HEK293 [5] = assay: cells; settings: Homo sapiens
HEK293 [6] = assay: cells; settings: Homo sapiens; remark: listed apart in the source
[7] = target: T3, Apoptotic protease-activating factor 1 (Homo sapiens, UniProt O14727); assay: activation of Apaf-1 mediated apoptosis – fluorescent, uHTS hits, dose response (AID 588554); format: functional
T3 sequence (O14727 whole entry): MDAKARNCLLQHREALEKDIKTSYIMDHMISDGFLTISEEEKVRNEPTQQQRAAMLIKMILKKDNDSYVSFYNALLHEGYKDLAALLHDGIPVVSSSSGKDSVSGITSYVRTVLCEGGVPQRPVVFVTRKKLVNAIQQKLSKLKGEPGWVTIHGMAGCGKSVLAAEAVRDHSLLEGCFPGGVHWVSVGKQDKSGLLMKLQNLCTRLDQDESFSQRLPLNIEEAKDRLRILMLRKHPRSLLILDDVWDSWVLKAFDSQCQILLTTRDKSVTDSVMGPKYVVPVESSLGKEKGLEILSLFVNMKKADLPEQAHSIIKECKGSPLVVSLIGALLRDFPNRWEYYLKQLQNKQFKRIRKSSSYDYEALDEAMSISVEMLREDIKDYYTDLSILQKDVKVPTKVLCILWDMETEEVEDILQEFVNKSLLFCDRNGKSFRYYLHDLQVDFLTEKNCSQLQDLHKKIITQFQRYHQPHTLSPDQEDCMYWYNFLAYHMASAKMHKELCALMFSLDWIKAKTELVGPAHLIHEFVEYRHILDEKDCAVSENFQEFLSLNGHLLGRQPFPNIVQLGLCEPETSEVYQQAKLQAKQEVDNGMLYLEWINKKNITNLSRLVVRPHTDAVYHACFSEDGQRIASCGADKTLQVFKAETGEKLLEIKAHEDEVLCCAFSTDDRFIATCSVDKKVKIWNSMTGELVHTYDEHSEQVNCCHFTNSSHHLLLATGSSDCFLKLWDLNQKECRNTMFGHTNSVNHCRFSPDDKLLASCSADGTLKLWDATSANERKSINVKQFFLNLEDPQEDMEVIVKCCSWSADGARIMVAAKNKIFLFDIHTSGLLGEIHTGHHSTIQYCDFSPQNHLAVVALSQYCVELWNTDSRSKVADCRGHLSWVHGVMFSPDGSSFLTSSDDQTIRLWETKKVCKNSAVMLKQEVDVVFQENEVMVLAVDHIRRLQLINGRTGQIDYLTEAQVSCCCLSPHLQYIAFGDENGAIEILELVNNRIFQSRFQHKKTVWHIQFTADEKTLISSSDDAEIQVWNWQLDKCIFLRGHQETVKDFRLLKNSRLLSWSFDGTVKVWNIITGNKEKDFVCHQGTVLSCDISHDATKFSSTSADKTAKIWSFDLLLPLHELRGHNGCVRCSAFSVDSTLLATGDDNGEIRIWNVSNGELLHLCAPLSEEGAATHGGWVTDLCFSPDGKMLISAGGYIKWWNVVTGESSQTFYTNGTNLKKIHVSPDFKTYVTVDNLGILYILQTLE

[8] = target: T4, Voltage-gated N-type calcium channel alpha-1B subunit/Amyloid beta A4 precursor protein-binding family A member 1 (Homo sapiens, UniProt Q00975+Q02410); format: protein assay
T4 sequence (Q00975 whole entry): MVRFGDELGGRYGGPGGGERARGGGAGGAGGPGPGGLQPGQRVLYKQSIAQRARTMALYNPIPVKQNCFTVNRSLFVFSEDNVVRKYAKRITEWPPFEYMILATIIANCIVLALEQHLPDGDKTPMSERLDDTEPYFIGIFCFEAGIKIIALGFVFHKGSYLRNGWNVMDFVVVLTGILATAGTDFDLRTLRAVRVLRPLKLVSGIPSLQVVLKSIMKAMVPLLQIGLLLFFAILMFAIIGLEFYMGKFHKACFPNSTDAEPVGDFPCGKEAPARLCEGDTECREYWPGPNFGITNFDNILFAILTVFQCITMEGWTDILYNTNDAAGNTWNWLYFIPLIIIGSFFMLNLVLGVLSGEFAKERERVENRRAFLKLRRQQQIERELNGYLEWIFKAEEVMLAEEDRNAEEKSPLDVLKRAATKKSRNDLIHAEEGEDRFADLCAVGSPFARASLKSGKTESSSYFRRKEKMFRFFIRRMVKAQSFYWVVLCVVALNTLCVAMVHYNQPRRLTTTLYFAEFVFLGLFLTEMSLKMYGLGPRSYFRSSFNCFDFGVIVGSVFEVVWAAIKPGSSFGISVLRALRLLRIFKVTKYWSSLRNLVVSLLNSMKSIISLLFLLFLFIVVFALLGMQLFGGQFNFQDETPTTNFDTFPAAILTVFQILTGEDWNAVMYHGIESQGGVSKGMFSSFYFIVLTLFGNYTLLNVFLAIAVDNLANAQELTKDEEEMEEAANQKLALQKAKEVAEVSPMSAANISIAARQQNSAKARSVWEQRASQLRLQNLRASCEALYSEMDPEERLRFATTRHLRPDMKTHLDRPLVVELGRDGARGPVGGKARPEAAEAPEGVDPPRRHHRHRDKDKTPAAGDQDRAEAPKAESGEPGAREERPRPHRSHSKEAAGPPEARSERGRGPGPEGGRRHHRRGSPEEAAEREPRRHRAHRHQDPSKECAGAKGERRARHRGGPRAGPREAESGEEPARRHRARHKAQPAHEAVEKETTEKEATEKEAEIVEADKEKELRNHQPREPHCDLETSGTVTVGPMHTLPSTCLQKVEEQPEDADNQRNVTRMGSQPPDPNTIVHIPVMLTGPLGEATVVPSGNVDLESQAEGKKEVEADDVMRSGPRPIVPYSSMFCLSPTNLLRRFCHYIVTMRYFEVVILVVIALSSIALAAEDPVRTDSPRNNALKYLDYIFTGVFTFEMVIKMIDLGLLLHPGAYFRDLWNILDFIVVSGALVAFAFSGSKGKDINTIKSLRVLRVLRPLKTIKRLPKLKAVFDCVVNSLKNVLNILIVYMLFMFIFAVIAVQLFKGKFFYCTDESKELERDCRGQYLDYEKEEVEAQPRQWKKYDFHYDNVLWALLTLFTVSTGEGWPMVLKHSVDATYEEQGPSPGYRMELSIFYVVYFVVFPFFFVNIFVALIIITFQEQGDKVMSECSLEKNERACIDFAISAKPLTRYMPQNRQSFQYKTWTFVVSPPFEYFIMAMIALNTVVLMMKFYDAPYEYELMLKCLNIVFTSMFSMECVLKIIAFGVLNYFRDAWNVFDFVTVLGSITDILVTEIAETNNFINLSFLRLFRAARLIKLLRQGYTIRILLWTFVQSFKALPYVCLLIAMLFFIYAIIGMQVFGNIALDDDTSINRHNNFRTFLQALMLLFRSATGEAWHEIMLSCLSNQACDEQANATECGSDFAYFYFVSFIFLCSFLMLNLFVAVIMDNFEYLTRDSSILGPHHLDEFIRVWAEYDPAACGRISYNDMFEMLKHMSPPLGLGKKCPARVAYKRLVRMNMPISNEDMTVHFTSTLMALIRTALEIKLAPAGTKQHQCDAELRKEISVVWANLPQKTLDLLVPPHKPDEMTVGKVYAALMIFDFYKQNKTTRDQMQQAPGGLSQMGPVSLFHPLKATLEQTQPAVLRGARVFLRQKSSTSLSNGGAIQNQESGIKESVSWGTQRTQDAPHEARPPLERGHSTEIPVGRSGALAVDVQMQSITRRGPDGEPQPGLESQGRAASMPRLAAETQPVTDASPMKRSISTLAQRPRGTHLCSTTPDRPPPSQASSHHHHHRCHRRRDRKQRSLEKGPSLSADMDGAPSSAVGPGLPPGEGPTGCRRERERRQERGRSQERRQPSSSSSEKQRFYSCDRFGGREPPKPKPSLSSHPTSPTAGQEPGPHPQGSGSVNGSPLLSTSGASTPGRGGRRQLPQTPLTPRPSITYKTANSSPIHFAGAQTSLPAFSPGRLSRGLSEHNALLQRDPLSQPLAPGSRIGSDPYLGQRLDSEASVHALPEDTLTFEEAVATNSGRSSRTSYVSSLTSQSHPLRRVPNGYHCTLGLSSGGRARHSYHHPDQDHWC
T4 sequence (Q02410 whole entry): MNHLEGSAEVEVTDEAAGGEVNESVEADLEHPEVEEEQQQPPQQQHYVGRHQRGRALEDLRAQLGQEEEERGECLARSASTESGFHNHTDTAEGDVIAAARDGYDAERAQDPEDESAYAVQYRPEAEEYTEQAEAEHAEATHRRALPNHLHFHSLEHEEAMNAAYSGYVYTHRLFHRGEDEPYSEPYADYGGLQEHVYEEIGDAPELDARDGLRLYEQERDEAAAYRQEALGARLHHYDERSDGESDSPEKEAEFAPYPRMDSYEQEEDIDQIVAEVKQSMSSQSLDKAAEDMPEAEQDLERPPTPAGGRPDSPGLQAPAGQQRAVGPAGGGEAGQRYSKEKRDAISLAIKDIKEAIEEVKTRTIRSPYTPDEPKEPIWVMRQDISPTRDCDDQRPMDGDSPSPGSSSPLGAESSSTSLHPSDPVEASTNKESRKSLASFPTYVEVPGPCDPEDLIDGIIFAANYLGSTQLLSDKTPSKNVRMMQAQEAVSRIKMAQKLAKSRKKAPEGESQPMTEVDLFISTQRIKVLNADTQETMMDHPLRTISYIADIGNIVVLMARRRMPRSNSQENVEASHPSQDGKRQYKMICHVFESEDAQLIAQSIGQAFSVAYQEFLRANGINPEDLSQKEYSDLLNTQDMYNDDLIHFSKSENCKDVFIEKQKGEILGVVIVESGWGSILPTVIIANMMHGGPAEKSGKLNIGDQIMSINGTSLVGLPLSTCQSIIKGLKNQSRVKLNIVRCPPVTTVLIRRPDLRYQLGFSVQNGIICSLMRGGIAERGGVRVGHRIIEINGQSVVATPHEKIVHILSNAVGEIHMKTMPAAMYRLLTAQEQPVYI

[9] = target: T4, Voltage-gated N-type calcium channel alpha-1B subunit/Amyloid beta A4 precursor protein-binding family A member 1; format: protein assay; remark: listed apart in the source
CAAX prenyl protease 2 = target: T5, CAAX prenyl protease 2 (Homo sapiens, UniProt Q9Y256); assay: human Rce1 protease inhibitors, dose response, biochemical, yeast membranes, quenched-peptide fluorescence, cherry-pick (AID 588849)
T5 sequence (Q9Y256 whole entry): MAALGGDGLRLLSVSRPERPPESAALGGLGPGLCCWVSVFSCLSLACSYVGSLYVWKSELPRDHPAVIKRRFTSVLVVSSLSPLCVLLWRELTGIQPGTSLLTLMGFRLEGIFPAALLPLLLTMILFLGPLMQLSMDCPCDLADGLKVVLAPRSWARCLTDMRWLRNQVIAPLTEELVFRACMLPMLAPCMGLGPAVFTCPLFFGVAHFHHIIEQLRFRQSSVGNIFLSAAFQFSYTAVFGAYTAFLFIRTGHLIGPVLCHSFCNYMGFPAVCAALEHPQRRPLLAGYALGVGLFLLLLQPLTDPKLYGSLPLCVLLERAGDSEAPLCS

CAAX prenyl protease 1 = CAAX prenyl protease 1 (Saccharomyces cerevisiae S288c, UniProt P47154); assay: Ste24 protease inhibitors, dose response, biochemical, S. cerevisiae, plate reader, cherry-pick (AID 488815)
Trypsin = Trypsin (Sus scrofa, UniProt P00761); assay: porcine trypsin inhibitors, dose response, selectivity assay for Rce1 protease inhibitor project, biochemical, quenched peptide fluorescence, cherry-pick (AID 488789)
Sequence of Trypsin (P00761 whole entry): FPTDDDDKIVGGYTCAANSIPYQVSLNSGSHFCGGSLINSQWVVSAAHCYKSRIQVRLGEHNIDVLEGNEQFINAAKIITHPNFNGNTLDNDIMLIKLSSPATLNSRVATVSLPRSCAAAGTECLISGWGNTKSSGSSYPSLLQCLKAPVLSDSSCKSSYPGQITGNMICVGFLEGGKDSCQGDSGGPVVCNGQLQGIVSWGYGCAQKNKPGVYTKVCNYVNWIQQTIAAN

[10] = Luminescence Cell-Based Dose Response Follow up to Identify Inhibitors of Platelet Dense Granule Release. [Related pubchem assays (depositor defined):AID1663, AID1678, AID1889, AID2519]; format: functional
Candida albicans = assay: reversal of fluconazole resistance in C. albicans, dose response, CaCi-2 strain, Alamar Blue, dry powder, set 3 (AID 488907); format: functional, organism-based
INS1 = assay: beta cell apoptosis inhibitors, cytokine rescue, dose response, luminescence, retest (AID 449756); format: functional, cell-based; settings: Rattus norvegicus;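 note: cell death triggered by IL-1 beta plus TNF-alpha plus IFN-gamma mixture; protective hits raise ATP signal compared with cytokine alone wells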
[11] = target: Lysine-specific demethylase 4A (Homo sapiens, UniProt O75164); assay: JMJD2A histone demethylase inhibitors, dose response, selectivity assay for GASC-1 inhibitor project, biochemical, DELFIA europium, cherry-picked samples (AID 488840)
cells [12] = format: functional, cell-based
[13] = target: T6, Heat shock factor protein 1 (Mus musculus, UniProt P38532); assay: HSF1 potentiators in luciferase reporter cells, confirmation, cell-based, NIH3T3, luminescence, dose retest (AID 435004); format: functional;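 note: stress induced by proteasome inhibitor MG132 added 30 min after compound; luciferase reporter driven by HSF1 response element in NIH3T3 cells; actives raise luminescence as potentiators of the MG132 stress response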
T6 sequence (P38532 whole entry): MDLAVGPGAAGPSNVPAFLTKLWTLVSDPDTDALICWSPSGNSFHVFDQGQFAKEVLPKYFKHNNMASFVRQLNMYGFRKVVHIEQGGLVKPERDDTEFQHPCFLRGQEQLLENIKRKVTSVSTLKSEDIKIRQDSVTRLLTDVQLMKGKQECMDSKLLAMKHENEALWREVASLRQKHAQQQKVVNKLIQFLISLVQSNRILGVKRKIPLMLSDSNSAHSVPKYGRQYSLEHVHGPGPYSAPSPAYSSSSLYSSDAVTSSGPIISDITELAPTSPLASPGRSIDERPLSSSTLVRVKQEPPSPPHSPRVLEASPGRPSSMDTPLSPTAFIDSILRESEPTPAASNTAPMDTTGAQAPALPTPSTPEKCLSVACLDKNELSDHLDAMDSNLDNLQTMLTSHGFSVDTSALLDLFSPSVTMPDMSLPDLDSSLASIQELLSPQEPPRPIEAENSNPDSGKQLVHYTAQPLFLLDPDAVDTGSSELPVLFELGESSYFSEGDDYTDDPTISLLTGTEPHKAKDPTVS

cells [14] = format: functional, cell-based; remark: listed apart in the source
[15] = Luminescence Cell-Based Dose Retest to Confirm Inhibitors of Cancer Stem Cells. [Related pubchem assays (depositor defined):AID2717, AID2721]; format: functional; settings: Homo sapiens
[16] = target: Lysine-specific demethylase 4C (Homo sapiens, UniProt Q9H3R0); assay: GASC-1 (JMJD2C) histone demethylase inhibitors, dose response, biochemical, DELFIA europium, cherry-picked samples (AID 488835); format: functional
Sequence of Lysine-specific demethylase 4C (Q9H3R0 whole entry): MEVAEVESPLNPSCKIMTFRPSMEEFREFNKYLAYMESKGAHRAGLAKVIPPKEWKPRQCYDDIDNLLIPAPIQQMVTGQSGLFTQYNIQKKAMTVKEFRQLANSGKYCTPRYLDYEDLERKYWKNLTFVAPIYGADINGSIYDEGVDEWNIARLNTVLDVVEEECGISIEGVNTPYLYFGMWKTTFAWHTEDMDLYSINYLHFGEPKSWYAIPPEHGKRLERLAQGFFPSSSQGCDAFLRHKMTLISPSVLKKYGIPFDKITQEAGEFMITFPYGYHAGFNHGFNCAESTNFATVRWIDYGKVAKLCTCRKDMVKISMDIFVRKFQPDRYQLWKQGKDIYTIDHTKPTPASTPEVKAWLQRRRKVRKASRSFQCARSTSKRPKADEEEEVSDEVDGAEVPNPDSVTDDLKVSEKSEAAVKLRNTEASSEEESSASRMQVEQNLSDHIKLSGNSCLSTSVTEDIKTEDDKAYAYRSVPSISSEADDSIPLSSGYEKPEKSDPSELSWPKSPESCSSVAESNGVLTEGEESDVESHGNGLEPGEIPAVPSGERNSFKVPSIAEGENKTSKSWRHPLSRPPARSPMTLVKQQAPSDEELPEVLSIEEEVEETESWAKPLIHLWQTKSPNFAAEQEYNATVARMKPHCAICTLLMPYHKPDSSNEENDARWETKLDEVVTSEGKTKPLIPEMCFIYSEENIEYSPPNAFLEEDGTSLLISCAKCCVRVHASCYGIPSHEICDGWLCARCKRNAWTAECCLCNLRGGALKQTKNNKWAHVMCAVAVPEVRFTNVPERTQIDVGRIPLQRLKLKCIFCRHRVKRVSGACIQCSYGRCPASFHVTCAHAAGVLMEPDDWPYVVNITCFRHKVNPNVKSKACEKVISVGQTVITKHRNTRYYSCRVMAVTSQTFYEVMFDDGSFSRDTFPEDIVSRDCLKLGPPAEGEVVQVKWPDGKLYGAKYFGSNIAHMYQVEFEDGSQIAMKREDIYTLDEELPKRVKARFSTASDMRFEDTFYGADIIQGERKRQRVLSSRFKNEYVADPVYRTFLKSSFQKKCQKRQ

Hexokinase HKDC1 = target: T7, Hexokinase HKDC1 (Homo sapiens, UniProt Q2TB90); assay: HKDC1 hexokinase inhibitors, dose response, biochemical, W721R variant (AID 504729); format: functional
T7 sequence (Q2TB90 whole entry): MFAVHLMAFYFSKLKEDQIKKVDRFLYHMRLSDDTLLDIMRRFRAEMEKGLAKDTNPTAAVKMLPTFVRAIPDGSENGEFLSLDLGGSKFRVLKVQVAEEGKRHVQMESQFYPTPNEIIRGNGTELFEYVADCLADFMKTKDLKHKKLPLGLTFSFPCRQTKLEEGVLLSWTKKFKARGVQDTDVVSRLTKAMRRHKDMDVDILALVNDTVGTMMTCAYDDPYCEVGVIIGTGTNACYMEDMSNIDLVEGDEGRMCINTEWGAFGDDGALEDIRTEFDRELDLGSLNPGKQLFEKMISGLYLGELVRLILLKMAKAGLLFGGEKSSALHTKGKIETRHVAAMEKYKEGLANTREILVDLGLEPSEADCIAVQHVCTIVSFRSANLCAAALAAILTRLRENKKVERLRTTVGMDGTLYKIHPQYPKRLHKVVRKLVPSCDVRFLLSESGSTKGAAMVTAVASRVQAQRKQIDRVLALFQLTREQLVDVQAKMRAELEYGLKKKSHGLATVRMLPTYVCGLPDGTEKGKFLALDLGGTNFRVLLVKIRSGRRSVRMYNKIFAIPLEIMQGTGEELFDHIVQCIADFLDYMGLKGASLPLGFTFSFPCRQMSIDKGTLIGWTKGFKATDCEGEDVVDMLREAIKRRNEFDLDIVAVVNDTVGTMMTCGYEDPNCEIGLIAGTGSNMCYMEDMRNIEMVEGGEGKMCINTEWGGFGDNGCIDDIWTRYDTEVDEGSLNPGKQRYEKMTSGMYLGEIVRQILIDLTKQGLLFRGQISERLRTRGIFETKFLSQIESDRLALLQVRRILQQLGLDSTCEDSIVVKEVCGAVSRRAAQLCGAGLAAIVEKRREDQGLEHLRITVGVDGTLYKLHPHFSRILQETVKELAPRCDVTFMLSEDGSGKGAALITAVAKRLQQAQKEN

T1 sequence (P09923 whole entry): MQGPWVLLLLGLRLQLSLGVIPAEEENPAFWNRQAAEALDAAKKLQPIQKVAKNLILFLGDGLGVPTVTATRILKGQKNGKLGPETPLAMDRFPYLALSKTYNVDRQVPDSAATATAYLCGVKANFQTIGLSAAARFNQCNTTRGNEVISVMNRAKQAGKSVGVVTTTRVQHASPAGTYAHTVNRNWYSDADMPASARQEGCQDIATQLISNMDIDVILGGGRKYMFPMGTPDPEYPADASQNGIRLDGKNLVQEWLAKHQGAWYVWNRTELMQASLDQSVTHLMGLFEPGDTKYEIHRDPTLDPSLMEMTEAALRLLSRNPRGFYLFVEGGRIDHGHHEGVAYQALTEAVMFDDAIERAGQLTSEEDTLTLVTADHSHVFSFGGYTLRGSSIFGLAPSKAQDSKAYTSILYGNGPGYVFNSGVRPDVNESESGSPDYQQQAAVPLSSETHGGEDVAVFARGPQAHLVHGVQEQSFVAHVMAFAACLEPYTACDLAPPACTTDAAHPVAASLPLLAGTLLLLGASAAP

Which EC50 [1] does the source give for `COc1cc(NC(=O)NCC2CCN(Cc3ccccc3Cl)CC2)cc(OC)c1OC` here?
The EC50 was 46.9 µM (active).

What about the EC50 [2] of the same molecule?
Its EC50 is 63.1 µM (active).

What about the EC50 [3] of the same molecule?
The EC50 was 61.3 µM (active).

What about the EC50 [4] of the same molecule?
Its EC50 is 33.9 µM (active).

For `COc1cc2c(cc1OC)-c1cc(OCc3cccnc3)nc(=O)n1CC2`, which EC50 (HEK293 [5]) is on record?
Its EC50 is > 59.6 µM (inactive).

And the EC50 (HEK293 [6])?
Its EC50 is > 59.6 µM (inactive).

For `Cc1cc(C)c2c(=O)c(/C=C3\NC(=S)NC3=O)coc2c1`, which EC50 [7] is on record?
The EC50 was 7.82 µM (active).

And the IC50 [8]?
Its IC50 is > 50 µM (inactive).

What about the IC50 [9] of the same molecule?
Its IC50 is 18.6 µM (active).

With `COc1ccc2c(c1)cc(C(=O)N[C@@H](CCSC)C(=O)N1CCC(C(=O)O)CC1)n2C` as the molecule, how does the AC50 (CAAX prenyl protease 2) read?
The AC50 was 22.2 µM (active).

And the AC50 (CAAX prenyl protease 1)?
The AC50 was 8.08 µM (active).

What about the AC50 (Trypsin) of the same molecule?
The AC50 was 27.2 µM (active).

With `CCCC(=O)Nc1cccc(NC(=O)Cc2ccc(Cl)cc2)c1` as the molecule, how does the EC50 [10] read?
Its EC50 is 500 µM (inactive).

With `Cc1ccnc(N2CCN(C(=O)c3ccc(Cl)cc3)CC2)c1` as the molecule, how does the AC50 (Candida albicans) read?
The AC50 was 0.0873 µM (active).

Which AC50 (INS1) does the source give for `Oc1ccc(/C=N/Nc2ncc(Br)cn2)c(O)c1` here?
The AC50 was 1.54 µM (active).

And the AC50 [11]?
Its AC50 is > 60 µM (inactive).

And the EC50 (cells [12])?
The EC50 was 41.1 µM (active).

And the EC50 [13]?
The EC50 was 18.6 µM (active).

And the EC50 (cells [14])?
Its EC50 is > 350 µM (not active).

What about the AC50 [15] of the same molecule?
Its AC50 is 4.55 µM (active).

What about the AC50 [16] of the same molecule?
The AC50 was 0.829 µM (active).

What about the IC50 (Hexokinase HKDC1) of the same molecule?
The IC50 was 1.68 µM (active).
